In patent US5631401A, “Inhibitors of protein farnesyltransferase and squalene synthase” (Abbott Laboratories, priority 1995, dated 1997):

Key:
[1] = biological target: T1, Rat liver microsomal squalene synthase (Rattus norvegicus, UniProt Q02769); assay: In vitro inhibition of squalene synthase (rat liver microsomes, 3H-farnesyl diphosphate); format: biochemical; conditions: for inhibition at 1 µM: compared to controls with no test compound; for inhibition at 10 µM: 10 μM (footnote *), read-out: % Inhibition at 10 μM (squalene synthase, values marked *)
T1 construct: Rat liver microsomes, the source of enzyme, were prepared; from tissue; host or cells: rat liver microsomes
T1 sequence (Q02769 1-416): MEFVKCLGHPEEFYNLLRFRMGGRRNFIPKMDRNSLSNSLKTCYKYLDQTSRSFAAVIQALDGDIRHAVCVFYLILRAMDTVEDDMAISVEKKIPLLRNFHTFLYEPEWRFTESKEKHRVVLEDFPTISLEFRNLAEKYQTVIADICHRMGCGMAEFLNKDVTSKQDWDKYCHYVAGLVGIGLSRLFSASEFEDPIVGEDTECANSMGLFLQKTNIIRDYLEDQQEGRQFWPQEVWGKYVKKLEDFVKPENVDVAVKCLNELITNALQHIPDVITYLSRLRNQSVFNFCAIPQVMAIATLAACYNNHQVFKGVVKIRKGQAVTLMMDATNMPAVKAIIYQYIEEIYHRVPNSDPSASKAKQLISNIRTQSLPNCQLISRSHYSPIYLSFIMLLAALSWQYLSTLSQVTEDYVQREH
Experimental: In vitro inhibition of squalene synthase may be measured by the following procedure.
Rat liver microsomal squalene synthase activity was measured using radioactive farnesyl diphosphate as a substrate and quantitating squalene synthesis by counting the radioactive squalene formed.
Rat liver microsomes, the source of enzyme, were prepared according to the method of Gillies, P. J., et al., Exp. Molec. Pathol. 44: 329-339 (1986), a modification of the procedure of Erickson, S. K., and Cooper, A. D., Metabolism, 29: 991-996 (1980). Approximately 30 μg of microsomal protein was incubated for 10 minutes at 37° C. with 11 μM of ^3 H-farnesyl diphosphate, 49 mCi/mmol, and test compound in the presence of squalene (2 μL), Mg^++, KF, reduced B-nicotinamide adenine dinucleotide phosphate, dithiothreitol, and K2 PO4, pH 7.35, in a total volume of 200 μL. Oxygen was excluded from the closed incubation tube by degassing with nitrogen. The reaction was terminated by the addition of ethanolic KOH and after degassing with N2, the microsomal membranes were solubilized by heating at 60° C. for 30 minutes. The squalene was extracted into hexane, and the squalene was separated from all other radioactive molecules by passage over an activated alumina column. The solution was collected in scintillation vials, evaporated to dryness, liquid scintillation fluid was added, and the radioactivity was determined in a liquid scintillation counter. […]

[2] = biological target: T2, Rat brain protein farnesyltransferase (Rattus norvegicus, UniProt Q02293+Q04631); assay: In vitro inhibition of protein farnesyltransferase (biotin-lamin substrate, scintillation proximity assay); format: biochemical; conditions: for inhibition at 1 µM: 1 μM (footnote *), read-out: % Inhibition at 1 μM (protein farnesyltransferase, values marked *); for inhibition at 10 µM: compared to uninhibited control
T2 construct: The enzyme was purified according to Reiss, Y., et al., Cell, 62: 81-88 (1990), utilizing steps one through three; from tissue; host or cells: rat brain
Experimental: In vitro inhibition of protein farnesyltransferase may be measured by the following procedure. (Procedures for determination of the inhibition of farnesylation of the oncogene protein Ras are described by Goldstein, et al., J. Biol. Chem., 266: 15575-15578 (1991) and by Singh in U.S. Pat. No. 5,245,061 both of which are incorporated herein by reference.)
Rat brain protein farnesyltransferase activity was measured using the biotin-lamin substrate (which is known to undergo farnesylation in a manner analogous to Ras protein) and radioactive farnesyl diphosphate provided by Amersham Life Science in their commercial scintillation proximity assay kit for the determination of farnesyltransferase. The enzyme was purified according to Reiss, Y., et al., Cell, 62: 81-88 (1990), utilizing steps one through three. The specific activity of the enzyme was approximately 10 nmol substrate farnesylated/mg enzyme/hour. […]

inhibition at 1 µM [1] [%]	inhibition at 1 µM [2] [%]	inhibition at 10 µM [2] [%]	inhibition at 10 µM [1] [%]	Structure (SMILES)
23	31	–	–	CSCCN(Cc1ccc(Oc2ccccc2)cc1)C(=O)C1C(C(=O)O)C(C(=O)N(CCSC)Cc2ccc(Oc3ccccc3)cc2)C1C(=O)O (stereo not drawn) [Example 69, (1α,2β,3β,4α)-1,3-Di[N-(2-methylthioethyl)-N-(4-phenoxybenzyl)aminocarbonyl]cyclobutane-2,4-dicarboxylic acid]
35	–	69	–	CCCCN(Cc1ccc(Oc2ccccc2)cc1)C(=O)[C@H]1[C@H](C(=O)O)[C@H](C(=O)N(CCCC)Cc2ccc(Oc3ccccc3)cc2)[C@H]1C(=O)O [Example 27, (1α,2β,3β,4α)-1,3-Di(N-butyl-N-(4-phenoxybenzyl)aminocarbonyl)cyclobutane-2,4-dicarboxylic acid]
52	–	74	–	O=C(O)[C@H]1[C@H](C(=O)N(Cc2ccc(Oc3ccccc3)cc2)CC2CC2)[C@H](C(=O)O)[C@H]1C(=O)N(Cc1ccc(Oc2ccccc2)cc1)CC1CC1 [Example 93, (1α,2β,3β,4α)-1,3-Di[N-Cyclopropylmethyl-N-(4-phenoxybenzyl)aminocarbonyl]cyclobutane-2,4-dicarboxylic acid]
–	–	69	33	CCCN(Cc1ccc(Cc2ccccc2)cc1)C(=O)[C@H]1[C@H](C(=O)O)[C@H](C(=O)N(CCC)Cc2ccc(Cc3ccccc3)cc2)[C@H]1C(=O)O [Example 26, (1α,2β,3β,4α)-1,3-Di(N-propyl-N-(4-(benzyl)benzyl)aminocarbonyl)cyclobutane-2,4-dicarboxylic acid]
–	–	55	89	CCCN(Cc1ccc(Oc2ccccc2)cc1)C(=O)[C@H]1[C@H](C(=O)O)[C@H](C(=O)N(CCC)Cc2ccc(Oc3ccccc3)cc2)[C@H]1C(=O)O [Example 18, (1α,2β,3β,4α)-1,3-Di(N-propyl-N-(4-phenoxybenzyl)aminocarbonyl)cyclobutane-2,4-dicarboxylic acid]
47	–	34	–	CN(Cc1ccc(Oc2ccccc2)cc1)C(=O)[C@H]1[C@H](C(=O)O)[C@H](C(=O)N(C)Cc2ccc(Oc3ccccc3)cc2)[C@H]1C(=O)O [Example 14, (1α,2β,3β,4α)-1,3-Di[N-methyl-N-(4-phenoxybenzyl)aminocarbonyl]cyclobutane-2,4-dicarboxylic acid]
49	–	32	–	O=C(O)[C@H]1[C@H](C(=O)N(Cc2ccc(Oc3ccccc3)cc2)C2CCCC2)[C@H](C(=O)O)[C@H]1C(=O)N(Cc1ccc(Oc2ccccc2)cc1)C1CCCC1 [Example 97, (1α,2β,3β,4α)-1,3-Di[N-cyclopentyl-N-(4-phenoxybenzyl)aminocarbonyl]cyclobutane-2,4-dicarboxylic acid]
24	–	59	–	CC(C)CN(Cc1ccc(Oc2ccccc2)cc1)C(=O)[C@H]1[C@H](C(=O)O)[C@H](C(=O)N(Cc2ccc(Oc3ccccc3)cc2)CC(C)C)[C@H]1C(=O)O [Example 25, (1α,2β,3β,4α)-1,3-Di(N-isobutyl-N-(4-phenoxybenzyl)aminocarbonyl)cyclobutane-2,4-dicarboxylic acid]
27	–	68	–	CCCN(Cc1cccc(Oc2ccccc2)c1)C(=O)C1C(C(=O)O)C(C(=O)N(CCC)Cc2cccc(Oc3ccccc3)c2)C1C(=O)O (stereo not drawn) [Example 51, (1α,2β,3β,4α)-1,3-Di[N-propyl-N-(3-phenoxybenzyl)aminocarbonyl]cyclobutane-2,4-dicarboxylic acid]
47	–	50	–	COc1ccc(CN(Cc2ccc(Oc3ccccc3)cc2)C(=O)[C@H]2[C@H](C(=O)O)[C@H](C(=O)N(Cc3ccc(OC)cc3)Cc3ccc(Oc4ccccc4)cc3)[C@H]2C(=O)O)cc1 [Example 89]
55	–	31	–	O=C(O)[C@H]1[C@H](C(=O)N(Cc2ccc(Oc3ccccc3)cc2)C2CCCCC2)[C@H](C(=O)O)[C@H]1C(=O)N(Cc1ccc(Oc2ccccc2)cc1)C1CCCCC1 [Example 98, (1α,2β,3β,4α)-1,3-Di[N-cyclohexyl-N-(4-phenoxybenzyl)aminocarbonyl]cyclobutane-2,4-dicarboxylic acid]
30	–	81	–	O=C(O)CCN(Cc1ccc(Oc2ccccc2)cc1)C(=O)C1C(C(=O)O)C(C(=O)N(CCC(=O)O)Cc2ccc(Oc3ccccc3)cc2)C1C(=O)O (stereo not drawn) [Example 44, (1α,2β,3β,4α)-1,3-Di[N-(2-carboxyethyl)-N-(4-phenoxybenzyl)aminocarbonyl]cyclobutane-2,4-dicarboxylic acid]
–	–	–	41	O=C(O)[C@H]1[C@H](C(=O)N(Cc2ccc(Oc3ccccc3)cc2)Cc2ccc(Oc3ccccc3)cc2)[C@H](C(=O)O)[C@H]1C(=O)N(Cc1ccc(Oc2ccccc2)cc1)Cc1ccc(Oc2ccccc2)cc1 [Example 20, (1α,2β,3β,4α)-1,3-Di(N,N-di(4-phenoxybenzyl)aminocarbonyl)cyclobutane-2,4-dicarboxylic acid]
–	–	45	26	CN(Cc1ccc(OCc2ccccc2)cc1)C(=O)[C@H]1[C@H](C(=O)O)[C@H](C(=O)N(C)Cc2ccc(OCc3ccccc3)cc2)[C@H]1C(=O)O [Example 15, (1α,2β,3β,4α)-1,3-Di[N-methyl-N-(4-benzyloxybenzyl)aminocarbonyl]cyclobutane-2,4-dicarboxylic acid]
37	26	–	–	CCCN(Cc1ccc(Oc2cccc(C)c2)cc1)C(=O)C1C(C(=O)O)C(C(=O)N(CCC)Cc2ccc(Oc3cccc(C)c3)cc2)C1C(=O)O (stereo not drawn) [Example 57, (1α,2β,3β,4α)-1,3-Di{N-propyl-N-[4-(3-methylphenoxy)benzyl]aminocarbonyl}cyclobutane-2,4-dicarboxylic acid]
–	–	80	52	CN(Cc1cccc(Oc2ccccc2)c1)C(=O)[C@H]1[C@H](C(=O)O)[C@H](C(=O)N(C)Cc2cccc(Oc3ccccc3)c2)[C@H]1C(=O)O [Example 19, (1α,2β,3β,4α)-1,3-Di(N-methyl-N-(3-phenoxybenzyl)aminocarbonyl)cyclobutane-2,4-dicarboxylic acid]
–	–	64	43	O=C(O)[C@H]1[C@H](C(=O)N(Cc2ccccc2)Cc2ccccc2)[C@H](C(=O)O)[C@H]1C(=O)N(Cc1ccccc1)Cc1ccccc1 [Example 33, (1α,2β,3β,4α)-1,3-Di[N,N-dibenzylaminocarbonyl]cyclobutane-2,4-dicarboxylic acid]
–	–	–	25	CN(c1ccc(-c2ccccc2)cc1)C(=O)[C@H]1[C@H](C(=O)O)[C@H](C(=O)N(C)c2ccc(-c3ccccc3)cc2)[C@H]1C(=O)O [Example 23, (1α,2β,3β,4α)-1,3-Di(N-methyl-N-biphenylaminocarbonyl)cyclobutane-2,4-dicarboxylic acid]
–	58	–	–	C[C@H](CCCc1ccccc1)CN(Cc1ccccc1)C(=O)[C@H]1[C@H](C(=O)O)[C@H](C(=O)N(Cc2ccccc2)C[C@H](C)CCCc2ccccc2)[C@H]1C(=O)O [Example 85, (1α,2β,3β,4α)-1,3-Di[N-benzyl-N-((2R)-5-phenyl-2-methylpentyl)aminocarbonyl]cyclobutane-2,4-dicarboxylic acid]
–	62	–	–	O=C(O)[C@H]1[C@H](C(=O)N(Cc2ccc(Oc3ccccc3)cc2)Cc2ccc3ccccc3c2)[C@H](C(=O)O)[C@H]1C(=O)N(Cc1ccc(Oc2ccccc2)cc1)Cc1ccc2ccccc2c1 [Example 81, (1α,2β,3β,4α)-1,3-Di [N-(4-phenoxybenzyl)-N-(2-methylnaphthyl)aminocarbonyl]cyclobutane-2,4-dicarboxylic acid]
